Laboratory results as given in ChEMBL document CHEMBL1201862, “PubChem BioAssay data set” (2004).
One block for each molecule: values may come before it. Calls of active or inactive are those of the source.

What was measured:
[1] = Counterscreen for inhibitors of Trypanosoma brucei methionyl tRNA synthetase (MetRS): Luminescence-based cell-based high throughput dose response assay to identify compounds that are cytotoxic to Jurkat human T lymphocyte cells.; type: functional
[2] = target: T1, Methionyl-tRNA synthetase, putative (Trypanosoma brucei brucei, UniProt Q38C91); type: functional, Trypanosoma brucei brucei strain 927/4 GUTat10.1
T1 sequence (Q38C91 whole entry): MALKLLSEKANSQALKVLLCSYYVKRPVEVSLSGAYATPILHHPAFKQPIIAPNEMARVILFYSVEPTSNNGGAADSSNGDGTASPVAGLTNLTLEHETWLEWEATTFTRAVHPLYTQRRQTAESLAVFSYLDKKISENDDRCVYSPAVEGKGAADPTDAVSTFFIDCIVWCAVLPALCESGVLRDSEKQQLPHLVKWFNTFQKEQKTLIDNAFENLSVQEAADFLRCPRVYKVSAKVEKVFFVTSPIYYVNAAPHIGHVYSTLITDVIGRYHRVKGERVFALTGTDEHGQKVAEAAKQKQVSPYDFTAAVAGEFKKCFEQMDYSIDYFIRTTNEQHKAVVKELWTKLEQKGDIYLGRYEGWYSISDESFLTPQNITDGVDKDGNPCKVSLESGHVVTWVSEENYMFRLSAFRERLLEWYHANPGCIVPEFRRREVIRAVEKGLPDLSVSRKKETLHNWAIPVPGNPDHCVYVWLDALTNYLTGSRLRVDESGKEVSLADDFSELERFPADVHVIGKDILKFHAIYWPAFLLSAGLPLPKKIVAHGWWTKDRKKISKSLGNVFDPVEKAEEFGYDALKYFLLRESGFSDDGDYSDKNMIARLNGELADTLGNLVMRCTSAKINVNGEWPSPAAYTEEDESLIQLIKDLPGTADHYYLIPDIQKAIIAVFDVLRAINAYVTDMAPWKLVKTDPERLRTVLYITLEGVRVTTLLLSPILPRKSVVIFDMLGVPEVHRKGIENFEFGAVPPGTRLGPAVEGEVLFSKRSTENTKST

[3] = target: T1, Methionyl-tRNA synthetase, putative; type: functional, Trypanosoma brucei brucei strain 927/4 GUTat10.1; remark: listed apart in the source
[4] = target: Endoplasmic reticulum aminopeptidase 1 (Homo sapiens, UniProt Q9NZ08); experiment: inhibition of human ERAP1 enzyme activity – biochemical, cherry-pick, set 2, plate reader, dose response (AID 743314)
Chain of Endoplasmic reticulum aminopeptidase 1 (Q9NZ08 whole entry): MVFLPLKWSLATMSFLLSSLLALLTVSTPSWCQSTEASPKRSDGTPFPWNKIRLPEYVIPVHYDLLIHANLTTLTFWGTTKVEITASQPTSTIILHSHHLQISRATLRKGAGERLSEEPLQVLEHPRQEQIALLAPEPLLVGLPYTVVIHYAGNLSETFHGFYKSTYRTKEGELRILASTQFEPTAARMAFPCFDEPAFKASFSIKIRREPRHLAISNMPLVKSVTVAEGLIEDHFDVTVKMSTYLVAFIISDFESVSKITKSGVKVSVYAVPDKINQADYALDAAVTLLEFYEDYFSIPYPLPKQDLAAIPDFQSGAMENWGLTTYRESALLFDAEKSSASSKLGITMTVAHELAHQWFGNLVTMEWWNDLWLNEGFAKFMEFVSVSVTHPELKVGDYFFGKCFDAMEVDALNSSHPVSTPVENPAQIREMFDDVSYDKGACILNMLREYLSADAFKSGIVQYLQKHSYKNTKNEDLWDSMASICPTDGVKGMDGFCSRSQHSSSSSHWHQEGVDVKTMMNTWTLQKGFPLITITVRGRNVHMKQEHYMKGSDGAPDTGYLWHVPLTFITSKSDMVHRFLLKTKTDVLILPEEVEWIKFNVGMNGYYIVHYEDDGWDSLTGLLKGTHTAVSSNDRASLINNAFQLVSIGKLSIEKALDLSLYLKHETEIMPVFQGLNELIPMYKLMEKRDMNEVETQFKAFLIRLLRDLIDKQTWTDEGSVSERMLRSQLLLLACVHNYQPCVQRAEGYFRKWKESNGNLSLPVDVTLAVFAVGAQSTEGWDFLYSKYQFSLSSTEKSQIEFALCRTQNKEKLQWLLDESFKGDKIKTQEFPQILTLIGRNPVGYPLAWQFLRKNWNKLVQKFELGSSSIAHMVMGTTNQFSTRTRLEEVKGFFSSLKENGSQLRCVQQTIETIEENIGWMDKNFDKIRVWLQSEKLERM

[5] = target: T2, Probable nicotinate-nucleotide adenylyltransferase (Staphylococcus aureus (strain N315), UniProt P65502); type: functional, Staphylococcus aureus subsp. aureus N315; conditions: read-out: IC50_Mean;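 as to IC50 Mean: confirmatory dose-response retesting of NadD inhibitor hits first found in an ultra-high-throughput screen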
[6] = target: T2, Probable nicotinate-nucleotide adenylyltransferase; type: functional, Staphylococcus aureus subsp. aureus N315
[7] = blockers of bursicon-stimulated LGR2 cAMP reporter – cell-based, HEK293, CRE-luciferase reporter, cherry pick, set 2, dose response (AID 743343); type: functional;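 also: transfected cells were stimulated with diluted bursicon conditioned medium after compound addition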
HEK293 = experiment: EBV LMP1 TES2 canonical NF-kB signalling blockers – cell-based, HEK293, luciferase, cherry-pick, dose response (AID 588343); type: functional; conditions: Homo sapiens
[8] = target: Nuclear receptor subfamily 0 group B member 1 (Homo sapiens, UniProt P51843); type: functional, cell-based;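 also: HEK293T cells transfected with SF-1 and DAX-1 plus StAR promoter luciferase reporter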
Chain of Nuclear receptor subfamily 0 group B member 1 (P51843 whole entry): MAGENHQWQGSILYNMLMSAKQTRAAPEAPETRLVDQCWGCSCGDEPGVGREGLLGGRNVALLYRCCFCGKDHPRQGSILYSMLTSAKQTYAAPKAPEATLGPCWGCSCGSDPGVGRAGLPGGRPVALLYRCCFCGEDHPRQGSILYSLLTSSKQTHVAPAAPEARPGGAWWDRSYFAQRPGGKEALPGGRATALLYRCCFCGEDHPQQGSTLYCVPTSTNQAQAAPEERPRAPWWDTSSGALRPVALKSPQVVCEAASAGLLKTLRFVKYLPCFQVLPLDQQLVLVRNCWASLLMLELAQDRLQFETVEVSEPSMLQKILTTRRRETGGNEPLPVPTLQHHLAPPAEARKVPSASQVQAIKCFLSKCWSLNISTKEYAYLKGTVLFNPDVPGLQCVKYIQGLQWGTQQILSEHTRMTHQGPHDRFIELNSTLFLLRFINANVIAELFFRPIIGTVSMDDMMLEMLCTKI

[9] = A549 cell cytotoxicity, dose response, cytotoxicity control, plate reader, cherry-pick, antagonist series (AID 743412); type: functional, cell-based
[10] = blockade of melanocortin 4 receptor signaling – cell-based, plate reader, cherry pick, counter-screen for LGR2 antagonist project, dose response (AID 743444); type: functional;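 also: transfected HEK 293 cells stimulated with alpha-MSH peptide; potency of inhibitors of the alpha-MSH evoked signal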
cells = type: functional, cell-based
[11] = viability loss in HEK293 cells – cell-based, plate reader, cherry-picked samples, cytotoxicity control, dose response (AID 743446); type: functional
[12] = potency of ADAM10 substrate cleavage blockers – biochemical, QFRET, dose response (AID 743254);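 also: ADAM10 enzyme with the DM2 quenched FRET peptide as substrate; EDANS fluorescence gain as the protease cuts the substrate; inhibitor potency against ADAM10 proteolytic activity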
[13] = target: T3, Disintegrin and metalloproteinase domain-containing protein 17 (Homo sapiens, UniProt P78536); experiment: inhibition of ADAM17 substrate cleavage – biochemical, quenched FRET substrate, counter-screen for ADAM10 exosite inhibitor project, dose response (AID 743253)
T3 sequence (P78536 whole entry, the tested form may be a part): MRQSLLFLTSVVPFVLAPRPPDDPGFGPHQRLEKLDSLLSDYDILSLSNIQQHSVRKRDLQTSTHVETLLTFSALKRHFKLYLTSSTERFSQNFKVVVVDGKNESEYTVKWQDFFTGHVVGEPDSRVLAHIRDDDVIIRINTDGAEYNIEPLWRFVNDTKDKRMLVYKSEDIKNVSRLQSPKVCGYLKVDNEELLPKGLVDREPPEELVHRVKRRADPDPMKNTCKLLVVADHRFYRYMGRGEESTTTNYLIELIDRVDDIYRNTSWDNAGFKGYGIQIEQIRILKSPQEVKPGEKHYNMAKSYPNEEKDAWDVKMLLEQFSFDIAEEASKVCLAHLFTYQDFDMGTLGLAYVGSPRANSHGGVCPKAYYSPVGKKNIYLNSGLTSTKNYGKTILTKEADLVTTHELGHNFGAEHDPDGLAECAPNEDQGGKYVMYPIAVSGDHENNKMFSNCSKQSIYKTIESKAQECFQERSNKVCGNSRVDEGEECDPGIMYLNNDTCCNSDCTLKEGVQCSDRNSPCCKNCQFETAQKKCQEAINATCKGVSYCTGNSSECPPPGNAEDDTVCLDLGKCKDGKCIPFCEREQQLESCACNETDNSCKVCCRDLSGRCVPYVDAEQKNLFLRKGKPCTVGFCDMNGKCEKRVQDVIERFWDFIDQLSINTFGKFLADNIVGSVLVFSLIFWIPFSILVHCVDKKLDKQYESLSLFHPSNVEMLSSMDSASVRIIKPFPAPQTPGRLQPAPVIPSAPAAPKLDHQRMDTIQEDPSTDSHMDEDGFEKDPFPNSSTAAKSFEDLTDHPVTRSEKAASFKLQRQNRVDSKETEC

[14] = target: NAD-dependent protein deacylase sirtuin-5, mitochondrial (Homo sapiens, UniProt Q9NXA8); experiment: sirtuin-5 deacylation blockers, concentration series – biochemical, fluorescence imaging, cherry-pick, set 5, dose response (AID 720591);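 also: desuccinylation of succinyl peptide AMC substrate read as fluorescence after trypsin release; potency of inhibitors that lower fluorescence and may act on trypsin instead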
Albumin = Albumin (Bos taurus, UniProt P02769); experiment: Counterscreen for inhibitors of T-cell receptor (TCR)-CD3 interaction: Fluorescence-based biochemical high throughput dose response assay to identify inhibitors of T-cell receptor (TCR)-CD3 interaction using a TAMRA-labeled BSA probe.; type: functional
Chain of Albumin (P02769 whole entry): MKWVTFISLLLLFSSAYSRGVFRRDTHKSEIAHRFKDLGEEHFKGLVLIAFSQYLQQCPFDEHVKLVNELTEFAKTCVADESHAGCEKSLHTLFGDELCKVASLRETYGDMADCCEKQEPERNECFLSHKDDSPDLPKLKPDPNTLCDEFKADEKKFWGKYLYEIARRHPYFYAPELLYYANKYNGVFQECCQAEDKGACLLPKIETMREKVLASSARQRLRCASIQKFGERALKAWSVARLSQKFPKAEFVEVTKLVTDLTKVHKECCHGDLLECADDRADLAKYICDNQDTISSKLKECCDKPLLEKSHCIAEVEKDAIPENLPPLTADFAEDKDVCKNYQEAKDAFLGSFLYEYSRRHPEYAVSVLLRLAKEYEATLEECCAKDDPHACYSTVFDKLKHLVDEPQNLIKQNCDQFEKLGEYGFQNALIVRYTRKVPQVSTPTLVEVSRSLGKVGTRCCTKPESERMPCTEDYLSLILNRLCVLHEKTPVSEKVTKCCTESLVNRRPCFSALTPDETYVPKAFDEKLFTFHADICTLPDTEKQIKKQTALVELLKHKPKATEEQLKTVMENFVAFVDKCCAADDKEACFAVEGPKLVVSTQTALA

[15] = Counterscreen for activators of the function of SWI/SNF related, matrix associated, actin dependent regulator of chromatin, subfamily a, member 2 (SMARCA2, BRM): Luminescence-based cell-based high throughput dose response assay to identify non-selective compounds using the VP16 reporter assay.; type: functional
[16] = target: SWI/SNF-related matrix-associated actin-dependent regulator of chromatin subfamily A member 2 (Homo sapiens, UniProt P51531); experiment: Luminescence-based cell-based high throughput dose response assay to identify activators of the function of SWI/SNF related, matrix associated, actin dependent regulator of chromatin, subfamily a, member 2 (SMARCA2, BRM).; type: functional
Chain of SWI/SNF-related matrix-associated actin-dependent regulator of chromatin subfamily A member 2 (P51531 whole entry, the tested form may be a part): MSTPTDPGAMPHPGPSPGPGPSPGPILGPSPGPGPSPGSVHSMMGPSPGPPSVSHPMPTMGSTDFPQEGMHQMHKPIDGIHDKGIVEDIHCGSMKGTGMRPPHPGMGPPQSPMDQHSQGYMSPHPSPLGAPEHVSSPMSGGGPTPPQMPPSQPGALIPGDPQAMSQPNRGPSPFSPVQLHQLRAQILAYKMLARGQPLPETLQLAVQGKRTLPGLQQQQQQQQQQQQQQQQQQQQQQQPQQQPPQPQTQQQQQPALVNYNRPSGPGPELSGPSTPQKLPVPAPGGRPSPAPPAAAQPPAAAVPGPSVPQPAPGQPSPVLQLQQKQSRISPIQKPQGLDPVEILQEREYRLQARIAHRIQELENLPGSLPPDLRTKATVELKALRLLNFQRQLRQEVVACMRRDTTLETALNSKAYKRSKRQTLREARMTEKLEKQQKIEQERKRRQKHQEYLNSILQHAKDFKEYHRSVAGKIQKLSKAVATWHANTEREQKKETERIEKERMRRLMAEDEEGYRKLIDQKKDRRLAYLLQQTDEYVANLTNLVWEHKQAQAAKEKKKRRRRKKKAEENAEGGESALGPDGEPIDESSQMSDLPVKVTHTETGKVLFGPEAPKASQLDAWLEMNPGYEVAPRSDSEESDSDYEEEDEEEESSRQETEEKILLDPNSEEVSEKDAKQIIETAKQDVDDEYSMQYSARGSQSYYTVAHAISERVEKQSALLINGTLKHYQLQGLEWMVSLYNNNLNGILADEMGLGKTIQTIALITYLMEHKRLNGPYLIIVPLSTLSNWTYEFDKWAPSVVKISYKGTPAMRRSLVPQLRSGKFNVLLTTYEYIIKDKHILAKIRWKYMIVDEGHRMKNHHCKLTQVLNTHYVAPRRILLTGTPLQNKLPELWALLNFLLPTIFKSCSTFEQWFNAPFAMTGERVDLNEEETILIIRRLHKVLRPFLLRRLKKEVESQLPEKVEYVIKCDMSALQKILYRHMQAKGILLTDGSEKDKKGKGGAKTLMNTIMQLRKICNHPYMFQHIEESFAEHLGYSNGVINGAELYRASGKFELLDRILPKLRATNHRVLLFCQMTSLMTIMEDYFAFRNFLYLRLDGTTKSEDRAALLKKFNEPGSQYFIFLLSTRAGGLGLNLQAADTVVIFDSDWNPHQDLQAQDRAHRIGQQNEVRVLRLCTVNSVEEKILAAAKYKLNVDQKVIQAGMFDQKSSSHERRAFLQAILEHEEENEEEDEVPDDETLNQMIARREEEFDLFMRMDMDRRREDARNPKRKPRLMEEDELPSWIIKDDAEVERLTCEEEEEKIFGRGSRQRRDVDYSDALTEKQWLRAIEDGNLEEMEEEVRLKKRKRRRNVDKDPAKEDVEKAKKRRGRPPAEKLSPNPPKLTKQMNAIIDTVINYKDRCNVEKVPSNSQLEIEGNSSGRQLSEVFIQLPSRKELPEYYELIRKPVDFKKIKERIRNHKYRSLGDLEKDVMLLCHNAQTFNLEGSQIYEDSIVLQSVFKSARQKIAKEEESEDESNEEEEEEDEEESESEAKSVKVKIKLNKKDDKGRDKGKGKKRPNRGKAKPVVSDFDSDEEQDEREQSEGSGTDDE

[17] = target: T4, Carboxy-terminal domain RNA polymerase II polypeptide A small phosphatase 1 (Homo sapiens, UniProt Q9GZU7); experiment: CTDSP1 inhibitors, concentration-response, biochemical, absorbance readout, ultra-high-throughput screen actives (AID 540297); type: functional
T4 sequence (Q9GZU7 whole entry): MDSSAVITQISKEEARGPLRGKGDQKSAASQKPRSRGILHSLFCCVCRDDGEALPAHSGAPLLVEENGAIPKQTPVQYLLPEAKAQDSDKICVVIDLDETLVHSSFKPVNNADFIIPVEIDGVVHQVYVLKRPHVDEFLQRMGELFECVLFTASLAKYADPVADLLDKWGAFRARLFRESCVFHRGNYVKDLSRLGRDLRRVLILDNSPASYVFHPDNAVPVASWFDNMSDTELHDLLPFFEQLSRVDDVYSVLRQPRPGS

[18] = general mammalian cell viability loss – activator set, cherry-pick, cytotoxicity control for miR-122 modulator project, dose response (AID 720690); type: functional, cell-based;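 also: HEK293T human cells scored for general mammalian cytotoxicity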
[19] = toxicity toward HepG2 liver cells – cell-based, plate reader, cherry-pick, antagonist series, cytotoxicity control, dose response (AID 743416); type: functional
[20] = activation of miR-122 Renilla sensor silencing – cell-based, Huh7 psiCHECK-miR122, Renilla luciferase, cherry-picked, dose response (AID 651956); type: functional;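 also: huh7 hepatoma cells stably carrying a psiCHECK-2 miR-122 sensor plasmid; renilla luciferase signal reporting endogenous miR-122 activity after 48 h compound exposure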
[21] = target: T3, Disintegrin and metalloproteinase domain-containing protein 17; experiment: exosite inhibitors of ADAM17, dose response, biochemical (AID 743260)
[22] = inhibition of ADAM10 peptide cleavage – biochemical, FRET peptide substrate, recombinant human ADAM10, selectivity assay for ADAM17 exosite inhibitor project, dose response (AID 743259);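 also: ADAM10 enzyme cleaving a FRET peptide substrate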
[23] = OVCAR-3 cell viability loss – plate reader, dry powder samples, PAX8 inhibitor project, dose response (AID 743044); type: functional, cell-based
Paired box protein Pax-8 = Paired box protein Pax-8 (Homo sapiens, UniProt Q06710); experiment: PAX8 transcriptional activity inhibition in RMG-I – RMG-I cells, luciferase, cherry-pick, dose response (AID 687027); type: functional, cell-based;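 also: luciferase reporter driven by Pax8 target thyroperoxidase promoter measured by SteadyGlo luminescence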
Chain of Paired box protein Pax-8 (Q06710 whole entry): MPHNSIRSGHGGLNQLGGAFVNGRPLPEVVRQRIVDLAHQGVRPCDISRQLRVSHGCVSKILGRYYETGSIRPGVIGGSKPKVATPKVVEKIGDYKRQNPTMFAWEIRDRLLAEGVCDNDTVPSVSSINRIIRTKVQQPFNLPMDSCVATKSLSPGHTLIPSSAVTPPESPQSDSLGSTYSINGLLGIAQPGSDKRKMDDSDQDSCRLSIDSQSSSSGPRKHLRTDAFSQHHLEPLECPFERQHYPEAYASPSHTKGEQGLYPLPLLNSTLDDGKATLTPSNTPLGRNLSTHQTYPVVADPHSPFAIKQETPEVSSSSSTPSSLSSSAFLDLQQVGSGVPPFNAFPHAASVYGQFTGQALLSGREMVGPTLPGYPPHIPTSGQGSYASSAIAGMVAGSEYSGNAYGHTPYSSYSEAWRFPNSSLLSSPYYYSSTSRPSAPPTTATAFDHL

[24] = A2780 cell killing – plate reader, dry powder samples, cytotoxicity control, dose response (AID 743046); type: functional, cell-based
HeLa = experiment: viability loss in HeLa cells – cell-based, ATP luminescence, cherry-pick samples, cytotoxicity control, dose response (AID 687004); type: functional; conditions: Homo sapiens
[25] = T. cruzi growth inhibition in host cells, dose response, cell-based, plate reader, dry powder, set 2 (AID 652275); type: functional

Compound: COc1ccc(CNC(=O)CSc2n[nH]c3c4cc(C)ccc4nc-3n2)cc1
IC50 [1]: 83.3 µM (inactive)
IC50 [2]: 11 µM (inactive)
IC50 [3]: 0.72 µM (active)

AC50 [4]: 3.11 µM (active)
Compound: Cc1c(CC(=O)N2CCN(C(=O)C3COc4ccccc4O3)CC2)c(=O)oc2cc(O)c(Cl)cc12 (stereo not drawn)

Compound: C=CCNC(=S)NNC(=O)c1ccc(=O)n(Cc2ccc(Cl)cc2Cl)c1
IC50 [1]: 83.3 µM (inactive)
IC50 [2]: 281 µM (inactive)
IC50 [3]: 13.4 µM (inactive)

IC50 [5]: 30.6 µM (active)
IC50 [6]: 9.71 µM (active)
Compound: O=C(CSc1nnc(-c2cc3ccccc3cc2O)n1Cc1ccco1)N1CCc2ccccc2C1

Compound: COC(=O)c1ccc2nc(-c3ccc4c(c3)OCO4)cn2c1
AC50 [7]: 2.13 µM (active)
AC50 (HEK293): 1.57 µM (active)
IC50 [8]: > 0.0925 µM (active)
AC50 [9]: > 52 µM (inactive)
AC50 [10]: 2.22 µM (active)
IC50 (cells): > 67.5 µM (inactive)
AC50 [11]: > 52 µM (inactive)

IC50 [12]: > 69.5 µM (inactive)
IC50 [13]: > 69.5 µM (inactive)
Compound: Cc1ccc(C(=O)Nc2ccccc2C(=O)NCc2ccco2)cc1S(=O)(=O)N1CCCCC1

AC50 [14]: > 30 µM (inactive)
Compound: O=C(NCCN1CCCC(O)C1)c1cc(COc2ccc(F)cc2Cl)on1 (stereo not drawn)

IC50 (Albumin): > 94.1 µM (inactive)
Compound: CC(C)C(=O)Nc1ccc(C(=O)NNC(=S)NC(=O)c2ccco2)cc1

Compound: O=C(NC(=S)Nc1ccc(Br)cn1)c1cccnc1
EC50 [15]: > 91.2 µM (inactive)
EC50 [16]: > 91.2 µM (inactive)

IC50 [17]: 3.2 µM (active)
IC50 (Albumin): > 94.1 µM (inactive)
IC50 [5]: 18 µM (active)
IC50 [6]: 9.77 µM (active)
Compound: CN(CCC#N)C(=O)COC(=O)c1c2c(nc3ccccc13)/C(=C\c1ccco1)CC2

Compound: CSc1nc2c(=S)n(C)c(=O)n(C)c2[nH]1
EC50 [15]: > 91.2 µM (inactive)
EC50 [16]: > 91.2 µM (inactive)

Compound: O=C(N/N=C/c1ccsc1)c1ccccn1
IC50 [8]: > 67.5 µM (inactive)
IC50 (cells): > 67.5 µM (inactive)

Compound: C[C@H](CO)N1C[C@H](C)[C@H](CN(C)C(=O)Nc2cccc3ccccc23)Oc2ncc(C#Cc3ccc(C(F)(F)F)cc3)cc2C1=O
AC50 [7]: 41.1 µM (active)
AC50 [9]: 21.3 µM (active)
AC50 [18]: 25.9 µM (active)
AC50 [19]: 23.1 µM (active)
AC50 [10]: 21.7 µM (active)
AC50 [20]: 13.9 µM (active)
AC50 [11]: 41.4 µM (active)

IC50 [21]: > 69.5 µM (inactive)
Compound: N#Cc1cccc(NC(=O)c2cc(C3CCCCN3S(=O)(=O)c3ccccc3)on2)c1 (stereo not drawn)
IC50 [22]: > 69.5 µM (inactive)

Compound: Cc1ccc(S(=O)(=O)Nc2ccc3c(c2)C(=O)N([C@H](C)CO)C[C@@H](C)[C@@H](CN(C)Cc2ccc4c(c2)OCO4)OCCCC[C@@H](C)O3)cc1
AC50 [23]: 29.1 µM (active)
AC50 (Paired box protein Pax-8): 21 µM (active)
AC50 [24]: < 0.26 µM (active)

Compound: CN1C(=O)c2cc(NC(=O)Nc3ccc(Cl)cc3)ccc2OC[C@H]2O[C@@H](CC(=O)NCCN3CCCCC3)CC[C@@H]21
AC50 (HeLa): 22.7 µM (active)

Compound: C[C@H]1CN([C@@H](C)CO)C(=O)c2cc(NC(=O)Nc3ccc(F)cc3)ccc2O[C@@H]1CN(C)S(C)(=O)=O
AC50 (HeLa): 1.16 µM (active)

IC50 [12]: > 69.5 µM (inactive)
IC50 [13]: > 69.5 µM (inactive)
Compound: O=C(CSc1nnc(Cc2cccs2)n1-c1ccc(Cl)cc1)Nc1ccc(OCc2ccccc2)cc1

Compound: CC(C)(C)[S@+]([O-])N1Cc2cc(C(=O)NCc3ccc4c(c3)OCO4)nc(-c3cccc(-c4cccnc4)c3)c2[C@@H]1CCO
AC50 [25]: 1.14 µM (active)

AC50 [4]: 7.13 µM (active)
Compound: O=C(NCC1CC1)[C@H]1[C@H](CO)[C@H]2Cn3c(ccc(/C=C/c4ccccc4)c3=O)[C@@H]1N2C(=O)C1CC1
